Reference: patent US20260062412A1, “NITROGEN-CONTAINING HETEROCYCLIC COMPOUND HAVING MYT1 INHIBITORY ACTIVITY” (CHUGAI SEIYAKU KABUSHIKI KAISHA, priority 2023, published 2026)
Counter-ions that a name gives are not always drawn.

Assays:
MYT1 protein = MYT1 protein (Homo sapiens (Human), UniProt Q99640); experiment: Test for binding to ATP binding site of MYT1 (Kinase Tracer 178 / Eu-Anti-GST antibody TR-FRET); conditions: ATP binding site of MYT1, 30 minutes at room temperature
LU65 = experiment: Cytotoxicity test with pemetrexed upon addition of each example compound (CellTiter-Glo); format: cell-based, human; conditions: combination with pemetrexed, LU65 cells, 7 days; maximum value, at the MYT1 inhibitor and pemetrexed concentrations
Protocol: LU65 (received from human tissue bank (JCRB Cell Bank)) was used in the evaluation of the present invention. LU65 is a lung cancer cell line having a truncated deletion mutation of S82* in RB1 gene (see Nature. 2019 May; 569(7757): 503-508. (Non Patent Literature 22)), in which the function of RB1 is decreased. The cell culture was carried out using RPMI-1640 (manufactured by SIGMA) containing 10% FBS (manufactured by SIGMA).
Each pemetrexed (manufactured by Tokyo Kasei Kogyo Co., Ltd.) and each example compound of each concentration were diluted using a DMSO solution, and 0.04 μL of each of series of dilution and DMSO was added to each well of cell culture plate using Echo 555 Liquid Handler (manufactured by Beckman Coulter Inc.). 1000 LU65 cells ([…]) were added to each well, which was cultured at 37° C. in a 5% CO2 incubator for 7 days. Intracellular ATP level which is a cell survival marker was measured and used in the monitoring of cell number. After culturing, 20 μL of CellTiter-Glo (registered trademark) 2.0 (manufactured by Promega) was added to each well, and the emission intensity was measured using Multimode Plate Reader En Vision (registered trademark) Xcite (manufactured by PerkinElmer). The cell survival rate under each condition was calculated by setting the value obtained by subtracting the luminescence of the cell unseeded well from the luminescence of the DMSO-added well as 100%, and calculating the proportion of a value obtained by subtracting the luminescence of the cell unseeded well from the luminescence detected at each well.
In addition, the cytotoxic activity under each condition was calculated by subtracting the survival rate in a combination of pemetrexed of each treatment concentration and each example compound of each treatment concentration, from 100%.

Chain of MYT1 protein (Q99640 whole entry): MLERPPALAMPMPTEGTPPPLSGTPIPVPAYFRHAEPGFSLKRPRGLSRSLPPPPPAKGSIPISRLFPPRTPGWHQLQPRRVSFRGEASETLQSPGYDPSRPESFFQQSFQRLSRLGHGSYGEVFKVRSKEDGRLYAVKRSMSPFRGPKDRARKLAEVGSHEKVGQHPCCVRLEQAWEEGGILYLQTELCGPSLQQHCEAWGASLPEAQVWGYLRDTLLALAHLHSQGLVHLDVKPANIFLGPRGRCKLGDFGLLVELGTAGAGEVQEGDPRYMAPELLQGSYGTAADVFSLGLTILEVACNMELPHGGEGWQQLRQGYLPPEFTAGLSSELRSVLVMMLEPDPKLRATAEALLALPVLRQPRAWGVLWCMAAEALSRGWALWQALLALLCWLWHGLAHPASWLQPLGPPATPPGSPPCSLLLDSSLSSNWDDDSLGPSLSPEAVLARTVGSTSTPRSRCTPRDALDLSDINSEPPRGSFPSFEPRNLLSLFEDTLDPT

| SMILES | IC50 (MYT1 protein) [nM] | Bliss Score (Max) (LU65) [%] | HSA Score (MAX) (LU65) [%] |
| --- | --- | --- | --- |
| Nc1c(-c2ccc(F)c3[nH]ncc23)c2cc(C3CC3)c3scnc3c2[nH]c1=O [Compound N2, 7-Amino-4-cyclopropyl-6-(7-fluoro-1H-indazol-4-yl)-9H-[1,3]thiazolo[5,4-h]quinolin-8-one] | 3.3 | 50 | 57 |
| Nc1c(-c2ccc(F)c3[nH]ncc23)c2cc(C3CC3)c3ccsc3c2[nH]c1=O [Compound L3, 7-Amino-4-cyclopropyl-6-(7-fluoro-1H-indazol-4-yl)-9H-thieno[3,2-h]quinolin-8-one] | 2.3 | 51 | 61 |
| COc1cc2c(-c3ccc(F)c4[nH]ncc34)c(N)c(=O)[nH]c2c2cc(F)cnc12 [Compound F2, 3-Amino-9-fluoro-4-(7-fluoro-1H-indazol-4-yl)-6-methoxy-1H-1,7-phenanthrolin-2-one] | 1.6 | 86 | 83 |
| Nc1c(-c2ccc(F)c3[nH]ncc23)c2cc(C3CC3)c3cnsc3c2[nH]c1=O [Compound H3, 7-Amino-4-cyclopropyl-6-(7-fluoro-1H-indazol-4-yl)-9H-[1,2]thiazolo[4,5-h]quinolin-8-one] | 2.7 | 61 | 61 |
| N#C[C@H]1C[C@H](Oc2cc3c(-c4ccc(Cl)c5[nH]ncc45)c(N)c(=O)[nH]c3cc2Cl)C1 [Compound A12, (1r,3r)-3-[[3-Amino-7-chloro-4-(7-chloro-1H-indazol-4-yl)-2-oxo-1H-quinolin-6-yl]oxy]cyclobutane-1-carbonitrile] | 2.6 | 61 | 70 |
| Cn1cnc2c3[nH]c(=O)c(N)c(-c4ccc(F)c5[nH]ncc45)c3cc(C3CC3)c21 [Compound M4, 7-Amino-4-cyclopropyl-6-(7-fluoro-1H-indazol-4-yl)-3-methyl-9H-imidazo[4,5-h]quinolin-8-one] | 19 | 51 | 60 |
| Cc1nc2c(C)cc3c(-c4ccc(F)c5[nH]ncc45)c(N)c(=O)[nH]c3c2s1 [Compound K4, 7-Amino-6-(7-fluoro-1H-indazol-4-yl)-2,4-dimethyl-9H-[1,3]thiazolo[4,5-h]quinolin-8-one] | 2.7 | 56 | 66 |
| Nc1c(-c2cc(F)c(Cl)c3[nH]ncc23)c2cc(Br)c3ncccc3c2[nH]c1=O [Compound C75, 3-Amino-6-bromo-4-(7-chloro-6-fluoro-1H-indazol-4-yl)-1H-1,7-phenanthrolin-2-one] | 1.9 |  |  |
| Nc1c(-c2ccc(F)c3[nH]ncc23)c2cc(SC(F)F)c3ncccc3c2[nH]c1=O [Compound C63, 3-Amino-6-(difluoromethylsulfanyl)-4-(7-fluoro-1H-indazol-4-yl)-1H-1,7-phenanthrolin-2-one] | 1.1 |  |  |
| Nc1c(-c2cccc3[nH]ccc23)c2cc(Cl)ccc2[nH]c1=O [Compound A53, 3-Amino-6-chloro-4-(1H-indol-4-yl)-1H-quinolin-2-one] | 980 |  |  |
| CC(C)Oc1cc2c(-c3ccc(Cl)c4[nH]ncc34)c(N)c(=O)[nH]c2cc1F [Compound A1, 3-Amino-4-(7-chloro-1H-indazol-4-yl)-7-fluoro-6-propan-2-yloxy-1H-quinolin-2-one] | 29 |  |  |
| Nc1c(-c2ccc(F)c3[nH]ncc23)c2cc(CCCF)c3ncccc3c2[nH]c1=O [Compound C160, 3-Amino-4-(7-fluoro-1H-indazol-4-yl)-6-(3-fluoropropyl)-1H-1,7-phenanthrolin-2-one] | 2.5 |  |  |
| CC(C)(C)OC(=O)N1CC(c2cc3c(-c4ccc(F)c5[nH]ncc45)c(N)c(=O)[nH]c3c3cccnc23)C1 [Compound C97, tert-Butyl 3-[3-amino-4-(7-fluoro-1H-indazol-4-yl)-2-oxo-1H-1,7-phenanthrolin-6-yl]azetidine-1-carboxylate] | 22 |  |  |
| N#CCOc1cc2c(-c3ccc(F)c4[nH]ncc34)c(N)c(=O)[nH]c2c2cccnc12 [Compound C62, 2-[[3-Amino-4-(7-fluoro-1H-indazol-4-yl)-2-oxo-1H-1,7-phenanthrolin-6-yl]oxy]acetonitrile] | 1.6 |  |  |
| CCCc1cc(Cl)cc2c(-c3ccc(Cl)c4[nH]ncc34)c(N)c(=O)[nH]c12 [Compound A22, 3-Amino-6-chloro-4-(7-chloro-1H-indazol-4-yl)-8-propyl-1H-quinolin-2-one] | 270 |  |  |
| Cc1nc2c(-c3ccc(F)c4[nH]ncc34)c(N)c(=O)[nH]c2c2cccnc12 [Compound O1, 3-Amino-4-(7-fluoro-1H-indazol-4-yl)-6-methyl-1H-pyrido[2,3-h][1,5]naphthyridin-2-one] | 1.1 | 37 | 44 |

| SMILES | IC50 (MYT1 protein) [nM] | Bliss Score (Max) (LU65) [%] | HSA Score (MAX) (LU65) [%] |
| --- | --- | --- | --- |
| Nc1c(-c2ccc(F)c3[nH]ncc23)c2cc(OC3CCOCC3)c3ncccc3c2[nH]c1=O [Compound C7, 3-Amino-4-(7-fluoro-1H-indazol-4-yl)-6-(oxan-4-yloxy)-1H-1,7-phenanthrolin-2-one] | 1.2 |  |  |
| Nc1c(-c2ccc(Cl)c3[nH]ncc23)c2cc(OCC3(F)CC3)c(F)cc2[nH]c1=O [Compound A72, 3-Amino-4-(7-chloro-1H-indazol-4-yl)-7-fluoro-6-[(1-fluorocyclopropyl)methoxy]-1H-quinolin-2-one] | 96 |  |  |
| N#C[C@H]1C[C@H](Oc2cc3c(-c4ccc(F)c5[nH]ncc45)c(N)c(=O)[nH]c3c3cccnc23)C1 [Compound C31, (1r,3r)-3-[[3-Amino-4-(7-fluoro-1H-indazol-4-yl)-2-oxo-1H-1,7-phenanthrolin-6-yl]oxy]cyclobutane-1-carbonitrile] | 4.3 |  |  |
| Nc1c(-c2ccc(F)c3[nH]ncc23)c2cc(N3CC4CC(C3)O4)c3ncccc3c2[nH]c1=O [Compound C128, 3-Amino-4-(7-fluoro-1H-indazol-4-yl)-6-(6-oxa-3-azabicyclo[3.1.1]heptan-3-yl)-1H-1,7-phenanthrolin-2-one] | 5.8 |  |  |
| CCCc1cc2c(-c3ccc(F)c4[nH]ncc34)c(N)c(=O)[nH]c2c2cccnc12 [Compound C106, 3-Amino-4-(7-fluoro-1H-indazol-4-yl)-6-propyl-1H-1,7-phenanthrolin-2-one] | 2.7 |  |  |
| Nc1c(-c2ccc(F)c3[nH]ncc23)c2cc(N3CCN(CC(F)(F)F)CC3)c3cccnc3c2[nH]c1=O [Compound D15, 3-Amino-4-(7-fluoro-1H-indazol-4-yl)-6-[4-(2,2,2-trifluoroethyl)piperazin-1-yl]-1H-1,10-phenanthrolin-2-one] | 69 |  |  |
| Nc1c(-c2ccc(F)c3[nH]ncc23)c2cc(C(F)(F)F)c3ncccc3c2[nH]c1=O [Compound C187, 3-Amino-4-(7-fluoro-1H-indazol-4-yl)-6-(trifluoromethyl)-1H-1,7-phenanthrolin-2-one] | 20 |  |  |
| Nc1c(-c2ccc(Cl)c3[nH]ncc23)c2cc(Cl)c3ncccc3c2[nH]c1=O [Compound C77, 3-Amino-6-chloro-4-(7-chloro-1H-indazol-4-yl)-1H-1,7-phenanthrolin-2-one] | 8.5 |  |  |
| Nc1c(-c2ccc(F)c3[nH]ncc23)c2cc(OCC3CCC3)c3ncccc3c2[nH]c1=O [Compound C9, 3-Amino-6-(cyclobutylmethoxy)-4-(7-fluoro-1H-indazol-4-yl)-1H-1,7-phenanthrolin-2-one] | 3.2 |  |  |
| CCc1cc2c(-c3ccc(Cl)c4[nH]ncc34)c(N)c(=O)[nH]c2c2cccnc12 [Compound C150, 3-Amino-4-(7-chloro-1H-indazol-4-yl)-6-ethyl-1H-1,7-phenanthrolin-2-one] | 1.9 |  |  |
| Nc1c(-c2cccc(O)c2)c2cc(Cl)c3ccccc3c2[nH]c1=O [Compound B8, 3-Amino-6-chloro-4-(3-hydroxyphenyl)-1H-benzo[h]quinolin-2-one] | 12 |  |  |
| Nc1c(-c2ccc(F)c3[nH]ncc23)c2cc(N3CC4(COC4)C3)c3cccnc3c2[nH]c1=O [Compound D10, 3-Amino-4-(7-fluoro-1H-indazol-4-yl)-6-(2-oxa-6-azaspiro[3,3]heptan-6-yl)-1H-1,10-one] | 3.9 |  |  |
| Nc1c(-c2ccc(F)c3[nH]ncc23)c2cc(NS(=O)(=O)C3CC3)c3nccnc3c2[nH]c1=O [Compound G6, N-[8-amino-7-(7-fluoro-1H-indazol-4-yl)-9-oxo-10H-pyrido[2,3-f]quinoxalin-5-yl]cyclopropanesulfonamide] | 7.4 |  |  |
| Nc1c(-c2cccc(O)c2)c2ccc3cnccc3c2[nH]c1=O [Compound P5, 3-Amino-4-(3-hydroxyphenyl)-1H-1,8-phenanthrolin-2-one; hydrobromide] | 3.9 |  |  |
| Nc1c(-c2ccncc2)c2cc(Cl)ccc2[nH]c1=O [Compound A44, 3-Amino-6-chloro-4-pyridin-4-yl-1H-quinolin-2-one] | 5000 |  |  |
